# PubChem BioAssay AID588611 (Sanford-Burnham Center for Chemical Genomics, 2011)
# The source made the active and inactive calls.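 The calls were made as follows: active = mean EC50 below 100 µM; inactive = the rest.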
# Target: Intestinal-type alkaline phosphatase (Homo sapiens) (UniProt P09923)
# Assay: human IAP enzyme activators, SAR follow-up, selectivity assay for mouse IAP activator project, biochemical, luminescence, set 2 (AID 588611)
# Conditions: purified human IAP, CDP-Star luminescence, 30 min
# Intestinal-type alkaline phosphatase (Homo sapiens), sequence (P09923 whole entry, looked up): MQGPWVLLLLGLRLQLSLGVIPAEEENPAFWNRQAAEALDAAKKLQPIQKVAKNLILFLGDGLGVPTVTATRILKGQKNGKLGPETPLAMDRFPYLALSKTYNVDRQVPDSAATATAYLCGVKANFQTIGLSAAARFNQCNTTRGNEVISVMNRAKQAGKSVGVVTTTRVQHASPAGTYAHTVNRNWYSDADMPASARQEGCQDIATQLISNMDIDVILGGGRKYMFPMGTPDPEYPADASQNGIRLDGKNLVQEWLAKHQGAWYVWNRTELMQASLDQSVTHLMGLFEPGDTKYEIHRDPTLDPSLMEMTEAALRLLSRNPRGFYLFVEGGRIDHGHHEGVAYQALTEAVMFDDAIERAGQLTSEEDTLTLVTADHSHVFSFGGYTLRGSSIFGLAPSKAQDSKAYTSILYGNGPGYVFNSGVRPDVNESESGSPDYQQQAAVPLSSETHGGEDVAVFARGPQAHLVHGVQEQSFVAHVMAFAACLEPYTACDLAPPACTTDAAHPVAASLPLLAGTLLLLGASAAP
row,EC50,SMILES
1,> 100 µM (inactive),CN(C)S(=O)(=O)c1cccc(NC(=S)NCCc2cccc(F)c2)c1
2,> 100 µM (inactive),CN(C)S(=O)(=O)c1ccc(NC(=S)NCCc2cccc(O)c2)cc1
3,> 100 µM (inactive),CCOc1cc(CCNC(=S)Nc2ccc(S(=O)(=O)N(C)C)cc2)ccc1OC
4,> 100 µM (inactive),Cc1ccccc1CNC(=S)Nc1ccc(S(=O)(=O)N(C)C)cc1
5,> 100 µM (inactive),CCN(CC)CCCNC(=S)Nc1cccc(S(=O)(=O)N(C)C)c1
6,> 100 µM (inactive),CN(C)S(=O)(=O)c1cccc(NC(=S)NCCc2cccc(O)c2)c1
7,> 100 µM (inactive),CN(C)S(=O)(=O)c1cccc(NC(=S)NCCCN2CCCC2=O)c1
8,58 µM,Cc1ccc(S(=O)(=O)N(C)C)cc1NC(=S)NC(C)CCCC(C)C (centres undefined)
9,89.6 µM,Cc1ccc(CNC(=S)Nc2ccc(S(=O)(=O)N(C)C)cc2)cc1
10,> 100 µM (inactive),Cc1ccc(CNC(=S)Nc2cccc(S(=O)(=O)N(C)C)c2)cc1
11,73.7 µM,CN(C)S(=O)(=O)c1ccc(NC(=S)NCCc2cccc(Br)c2)cc1
12,> 100 µM (inactive),CN(C)S(=O)(=O)c1cccc(NC(=S)NCCc2ccc(F)cc2)c1
13,84.5 µM,CN(C)S(=O)(=O)c1cccc(NC(=S)NCCc2ccc(Br)cc2)c1
14,> 100 µM (inactive),CN(C)S(=O)(=O)c1ccc(NC(=S)NCCN2CCCC2)cc1
15,> 100 µM (inactive),CN(C)CCCNC(=S)Nc1cccc(S(=O)(=O)N(C)C)c1
16,> 100 µM (inactive),CN(C)S(=O)(=O)c1cccc(NC(=S)NCCN2CCCC2)c1
17,66.6 µM,Cc1ccc(S(=O)(=O)N(C)C)cc1NC(=S)NC(C)CCC(C)C (centres undefined)
18,65 µM,CN(C)S(=O)(=O)c1cccc(NC(=S)NCCc2cccc(Br)c2)c1
19,> 100 µM (inactive),CN(C)S(=O)(=O)c1ccc(NC(=S)NCCc2ccccc2)cc1
20,> 100 µM (inactive),Cc1ccc(S(=O)(=O)N(C)C)cc1NC(=S)NC1CCN(Cc2ccccc2)CC1
21,> 100 µM (inactive),CN(C)S(=O)(=O)c1cccc(NC(=S)NCCc2ccccc2)c1
22,82 µM,COc1cccc(CCNC(=S)Nc2cccc(S(=O)(=O)N(C)C)c2)c1
23,> 100 µM (inactive),Cc1ccc(S(=O)(=O)N(C)C)cc1NC(=S)NCCCn1ccnc1
24,> 100 µM (inactive),CN(C)S(=O)(=O)c1cccc(NC(=S)NCCCn2ccnc2)c1

# Further lines, the molecule ahead of its results:
row,SMILES,EC50
1,CC1CCN(S(=O)(=O)c2ccc(NC(=S)NCCC(c3ccccc3)c3ccccc3)cc2)CC1,53.1 µM
2,CN(C)S(=O)(=O)c1cccc(NC(=S)NC(c2ccccc2)c2ccccc2)c1,34 µM
3,CN(C)S(=O)(=O)c1cccc(NC(=S)NCCC(c2ccccc2)c2ccccc2)c1,> 100 µM (inactive)
4,COc1cccc(CNC(=S)Nc2ccc(S(=O)(=O)N(C)C)cc2)c1,> 100 µM (inactive)
5,CCN(CC)S(=O)(=O)c1ccc(NC(=S)NC(c2ccccc2)c2ccccc2)cc1,63.7 µM
6,CCN(CC)S(=O)(=O)c1ccc(NC(=S)NCCC(c2ccccc2)c2ccccc2)cc1,41.3 µM
7,CC1CCN(S(=O)(=O)c2ccc(NC(=S)NCC(c3ccccc3)c3ccccc3)cc2)CC1,> 100 µM (inactive)
8,O=S(=O)(c1ccc(NC(=S)NC(c2ccccc2)c2ccccc2)cc1)N1CCCC1,58.2 µM
9,O=S(=O)(c1ccc(NC(=S)NCc2cccc(F)c2)cc1)N1CCCCC1,76.8 µM
10,O=C(NC(=S)Nc1cc(S(=O)(=O)N2CCOCC2)ccc1O)c1ccco1,> 100 µM (inactive)
11,COc1ccc(CNC(=S)Nc2ccc(S(=O)(=O)N3CCCCC3)cc2)cc1OC,> 100 µM (inactive)
12,CN(C)S(=O)(=O)c1ccc(NC(=S)NCc2ccc(Cl)cc2)cc1,> 100 µM (inactive)
13,COc1ccccc1CNC(=S)Nc1ccc(S(=O)(=O)N(C)C)cc1,> 100 µM (inactive)
14,CN(CCc1ccccn1)C(=S)Nc1cccc(S(=O)(=O)N(C)C)c1,> 100 µM (inactive)
15,CC(CCc1ccccc1)NC(=S)Nc1cccc(S(=O)(=O)N(C)C)c1 (centres undefined),69.4 µM
16,CN(CCc1ccccc1)C(=S)Nc1cccc(S(=O)(=O)N(C)C)c1,> 100 µM (inactive)
17,CN(C)S(=O)(=O)c1cccc(NC(=S)NC(C)(C)CC(C)(C)C)c1,70.7 µM
18,CN(C)S(=O)(=O)c1ccc(NC(=S)NCCC(c2ccccc2)c2ccccc2)cc1,57.2 µM
19,CCN(CC)c1ccc(C(=O)NC(=S)Nc2cc(S(=O)(=O)N3CCOCC3)ccc2-n2cncn2)cc1,> 100 µM (inactive)
20,Cc1ccc(C)c(NC(=S)Nc2ccc(S(=O)(=O)N3CCCCC3)cc2)c1,> 100 µM (inactive)

row,SMILES,EC50
1,O=S(=O)(c1ccc(NC(=S)NCCC(c2ccccc2)c2ccccc2)cc1)N1CCCCC1,53 µM
2,CC1CCN(S(=O)(=O)c2ccc(NC(=S)NC(c3ccccc3)c3ccccc3)cc2)CC1,> 100 µM (inactive)
3,CC1CC(NC(=S)Nc2cccc(S(=O)(=O)N(C)C)c2)CC(C)N1 (centres undefined),> 100 µM (inactive)
4,CN(C)S(=O)(=O)c1ccc(NC(=S)NC(c2ccccc2)c2ccccc2)cc1,62.4 µM
5,O=C(CCc1ccccc1)NC(=S)Nc1cccc(S(=O)(=O)N2CCCC2)c1,> 100 µM (inactive)
6,CCN(CC)S(=O)(=O)c1ccc(NC(=S)NCC(c2ccccc2)c2ccccc2)cc1,55.5 µM
7,CN(C)S(=O)(=O)c1cccc(NC(=S)NCC(c2ccccc2)c2ccccc2)c1,39.4 µM
8,Cc1ccc(S(=O)(=O)N(C)C)cc1NC(=S)NC(=O)C12CC3CC(CC(C3)C1)C2,> 100 µM (inactive)
9,CN(C)CC(C)(C)CNC(=S)Nc1cccc(S(=O)(=O)N(C)C)c1,> 100 µM (inactive)
10,O=C(NC(=S)Nc1cc(S(=O)(=O)N2CCOCC2)ccc1N1CCOCC1)c1ccco1,> 100 µM (inactive)
11,COc1ccc(CCNC(=S)Nc2ccc(S(=O)(=O)N3CCCCC3)cc2)cc1,77.2 µM
12,O=S(=O)(c1ccc(NC(=S)NCC(c2ccccc2)c2ccccc2)cc1)N1CCCCC1,72.1 µM
13,CN(C)S(=O)(=O)c1cccc(NC(=S)NCc2ccc(Cl)cc2)c1,75.5 µM
14,CN(C)S(=O)(=O)c1cccc(NC(=S)NCCC(=O)N2CCCC2)c1,> 100 µM (inactive)
15,O=S(=O)(c1ccc(NC(=S)NC(c2ccccc2)c2ccccc2)cc1)N1CCCCC1,68.7 µM
16,COc1ccc(CCNC(=S)Nc2ccc(S(=O)(=O)N3CCCCC3)cc2)cc1OC,> 100 µM (inactive)
17,CC(CNC(=S)Nc1cccc(S(=O)(=O)N(C)C)c1)N1CCN(c2ccccc2)CC1 (centres undefined),> 100 µM (inactive)
18,O=S(=O)(c1ccc(NC(=S)NCCC(c2ccccc2)c2ccccc2)cc1)N1CCCC1,62.2 µM
19,O=S(=O)(c1ccc(NC(=S)NCC(c2ccccc2)c2ccccc2)cc1)N1CCCC1,58.5 µM
20,O=c1c2ccccc2[nH]c(=S)n1-c1cccc(S(=O)(=O)N2CCCC2)c1,> 100 µM (inactive)
